Results reported in article PMC11314561, “Design and Synthesis of Novel Aminoindazole-pyrrolo[2,3-b]pyridine Inhibitors of IKKα That Selectively Perturb Cellular Non-Canonical NF-κB Signalling” (Molecules, 2024).

Assays:
Assay in all cases: kinase panel
Format in all cases: biochemical
PDK1(h) = molecular target: T1, PDK1(h) (Homo sapiens, UniProt O15530)
T1 sequence (O15530 1-556): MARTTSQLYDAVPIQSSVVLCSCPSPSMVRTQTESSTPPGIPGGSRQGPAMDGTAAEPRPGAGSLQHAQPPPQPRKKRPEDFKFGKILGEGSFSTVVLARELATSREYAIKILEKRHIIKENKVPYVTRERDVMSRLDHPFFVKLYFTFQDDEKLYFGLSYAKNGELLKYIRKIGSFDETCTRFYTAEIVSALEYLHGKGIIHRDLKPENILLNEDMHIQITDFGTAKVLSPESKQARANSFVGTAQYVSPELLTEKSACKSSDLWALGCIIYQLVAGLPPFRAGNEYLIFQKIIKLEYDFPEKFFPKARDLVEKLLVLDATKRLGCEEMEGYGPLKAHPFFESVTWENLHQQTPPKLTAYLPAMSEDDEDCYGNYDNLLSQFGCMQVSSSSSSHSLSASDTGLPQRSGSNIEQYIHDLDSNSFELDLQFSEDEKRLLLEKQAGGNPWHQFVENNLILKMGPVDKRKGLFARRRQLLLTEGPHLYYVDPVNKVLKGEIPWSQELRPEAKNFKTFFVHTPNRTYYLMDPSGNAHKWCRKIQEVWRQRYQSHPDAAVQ
Summary of the method: (§1)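 % inhibition read-out; kinome panel of 231 kinases; one analogue run on a selected 98-kinase subset only.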

PAK2(h) = PAK2(h) (Homo sapiens, UniProt Q13177)
Summary of the method: as §1

MST2(h) = molecular target: T2, MST2(h) (Homo sapiens, UniProt Q13188)
T2 sequence (Q13188 1-491): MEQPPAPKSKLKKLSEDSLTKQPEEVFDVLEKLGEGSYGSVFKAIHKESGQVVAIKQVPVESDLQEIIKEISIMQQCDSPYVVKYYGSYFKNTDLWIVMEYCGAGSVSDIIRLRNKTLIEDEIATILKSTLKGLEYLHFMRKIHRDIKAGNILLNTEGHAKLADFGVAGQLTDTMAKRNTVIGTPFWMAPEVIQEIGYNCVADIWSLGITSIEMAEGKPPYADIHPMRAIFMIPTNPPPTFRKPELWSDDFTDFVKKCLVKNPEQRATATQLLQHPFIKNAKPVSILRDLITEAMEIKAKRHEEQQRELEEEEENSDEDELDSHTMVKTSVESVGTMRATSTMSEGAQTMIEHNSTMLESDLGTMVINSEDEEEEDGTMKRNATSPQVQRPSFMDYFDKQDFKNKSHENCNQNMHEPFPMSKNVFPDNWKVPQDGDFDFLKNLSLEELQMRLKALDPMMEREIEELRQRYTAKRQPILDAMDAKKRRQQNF
Summary of the method: as §1

CDK6/cyclinD3(h) = CDK6/cyclinD3(h) (Homo sapiens, UniProt Q00534)
Summary of the method: as §1

EGFR(h) = EGFR(h) (Homo sapiens, UniProt P00533)
Summary of the method: as §1

Met(h) = Met(h) (Homo sapiens, UniProt P08581)
Summary of the method: as §1

CaMKIδ(h) = CaMKIδ(h) (Homo sapiens, UniProt Q8IU85)
Summary of the method: as §1

CDK9/cyclin T1(h) = CDK9/cyclin T1(h) (Homo sapiens, UniProt P50750)
Summary of the method: as §1

PRAK(h) = molecular target: T3, PRAK(h) (Homo sapiens, UniProt Q8IW41)
T3 sequence (Q8IW41 1-473): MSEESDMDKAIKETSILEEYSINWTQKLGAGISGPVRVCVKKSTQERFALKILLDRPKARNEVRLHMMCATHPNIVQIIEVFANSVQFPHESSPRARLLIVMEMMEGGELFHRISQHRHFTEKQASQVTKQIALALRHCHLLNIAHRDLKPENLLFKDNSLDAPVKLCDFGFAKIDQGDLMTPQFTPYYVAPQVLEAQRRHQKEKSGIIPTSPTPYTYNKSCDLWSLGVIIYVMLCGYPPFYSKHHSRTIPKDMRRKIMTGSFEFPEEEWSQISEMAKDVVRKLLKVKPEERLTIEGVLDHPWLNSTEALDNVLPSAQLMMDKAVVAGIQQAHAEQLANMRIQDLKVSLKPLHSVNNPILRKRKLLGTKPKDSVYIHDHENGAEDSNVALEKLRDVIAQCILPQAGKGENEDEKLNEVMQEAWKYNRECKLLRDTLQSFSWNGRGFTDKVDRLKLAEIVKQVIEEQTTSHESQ
Summary of the method: as §1

CaMKI(h) = CaMKI(h) (Homo sapiens, UniProt Q14012)
Summary of the method: as §1

SAPK4(h) = molecular target: T4, SAPK4(h) (Homo sapiens, UniProt O15264)
T4 sequence (O15264 1-365): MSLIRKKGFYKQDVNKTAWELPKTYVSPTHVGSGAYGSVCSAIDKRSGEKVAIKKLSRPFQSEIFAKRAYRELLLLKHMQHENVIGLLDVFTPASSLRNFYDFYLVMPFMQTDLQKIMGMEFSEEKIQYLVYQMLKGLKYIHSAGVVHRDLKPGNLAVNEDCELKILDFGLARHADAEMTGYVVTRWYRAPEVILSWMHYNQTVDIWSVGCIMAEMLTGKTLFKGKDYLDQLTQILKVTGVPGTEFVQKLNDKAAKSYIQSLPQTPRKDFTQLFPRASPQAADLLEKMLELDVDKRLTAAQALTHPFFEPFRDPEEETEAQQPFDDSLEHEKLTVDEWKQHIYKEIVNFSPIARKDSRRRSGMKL
Summary of the method: as §1

CLK2(h) = CLK2(h) (Homo sapiens, UniProt P49760)
Summary of the method: as §1

Sequence of CLK2(h) (P49760 whole entry): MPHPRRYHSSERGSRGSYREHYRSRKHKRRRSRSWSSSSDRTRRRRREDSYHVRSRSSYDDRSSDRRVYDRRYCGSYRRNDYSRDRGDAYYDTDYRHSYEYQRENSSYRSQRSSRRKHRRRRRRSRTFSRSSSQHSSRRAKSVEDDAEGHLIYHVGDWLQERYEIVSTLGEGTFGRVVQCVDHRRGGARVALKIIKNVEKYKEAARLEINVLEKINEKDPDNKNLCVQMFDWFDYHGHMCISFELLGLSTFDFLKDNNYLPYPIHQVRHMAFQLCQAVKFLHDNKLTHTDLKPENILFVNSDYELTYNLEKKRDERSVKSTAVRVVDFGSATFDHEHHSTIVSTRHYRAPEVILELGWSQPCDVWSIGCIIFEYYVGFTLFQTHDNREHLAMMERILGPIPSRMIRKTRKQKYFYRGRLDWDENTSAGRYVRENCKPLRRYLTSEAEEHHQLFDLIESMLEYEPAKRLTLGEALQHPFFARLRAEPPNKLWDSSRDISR
Sequence of CDK6/cyclinD3(h) (Q00534 whole entry): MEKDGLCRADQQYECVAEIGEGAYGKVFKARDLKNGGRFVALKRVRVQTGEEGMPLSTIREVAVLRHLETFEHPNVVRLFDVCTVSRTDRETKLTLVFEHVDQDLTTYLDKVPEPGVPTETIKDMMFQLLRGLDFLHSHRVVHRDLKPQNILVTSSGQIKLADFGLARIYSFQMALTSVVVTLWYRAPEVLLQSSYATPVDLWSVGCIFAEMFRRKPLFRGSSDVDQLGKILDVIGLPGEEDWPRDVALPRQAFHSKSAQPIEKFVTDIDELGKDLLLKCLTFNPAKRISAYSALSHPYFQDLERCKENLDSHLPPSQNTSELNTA
Sequence of CDK6/cyclinD3(h) (P30281 whole entry partner): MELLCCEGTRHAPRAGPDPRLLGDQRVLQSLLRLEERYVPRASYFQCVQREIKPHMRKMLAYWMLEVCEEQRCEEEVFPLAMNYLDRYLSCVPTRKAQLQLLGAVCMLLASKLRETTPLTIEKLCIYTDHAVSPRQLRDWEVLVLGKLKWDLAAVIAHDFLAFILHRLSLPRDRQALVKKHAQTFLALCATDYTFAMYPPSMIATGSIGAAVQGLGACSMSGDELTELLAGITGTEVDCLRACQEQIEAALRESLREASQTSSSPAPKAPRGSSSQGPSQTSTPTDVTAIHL
Sequence of CDK9/cyclin T1(h) (P50750 whole entry): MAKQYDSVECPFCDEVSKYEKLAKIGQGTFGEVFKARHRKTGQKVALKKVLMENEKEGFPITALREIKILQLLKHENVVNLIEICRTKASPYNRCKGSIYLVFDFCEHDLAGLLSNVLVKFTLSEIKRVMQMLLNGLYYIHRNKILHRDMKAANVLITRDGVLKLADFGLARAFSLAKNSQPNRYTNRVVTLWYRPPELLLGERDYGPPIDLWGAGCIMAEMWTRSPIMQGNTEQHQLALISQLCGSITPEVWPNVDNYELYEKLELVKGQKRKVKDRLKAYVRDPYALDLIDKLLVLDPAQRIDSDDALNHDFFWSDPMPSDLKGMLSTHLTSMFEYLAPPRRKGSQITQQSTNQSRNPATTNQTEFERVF
Sequence of CDK9/cyclin T1(h) (O60563 whole entry partner): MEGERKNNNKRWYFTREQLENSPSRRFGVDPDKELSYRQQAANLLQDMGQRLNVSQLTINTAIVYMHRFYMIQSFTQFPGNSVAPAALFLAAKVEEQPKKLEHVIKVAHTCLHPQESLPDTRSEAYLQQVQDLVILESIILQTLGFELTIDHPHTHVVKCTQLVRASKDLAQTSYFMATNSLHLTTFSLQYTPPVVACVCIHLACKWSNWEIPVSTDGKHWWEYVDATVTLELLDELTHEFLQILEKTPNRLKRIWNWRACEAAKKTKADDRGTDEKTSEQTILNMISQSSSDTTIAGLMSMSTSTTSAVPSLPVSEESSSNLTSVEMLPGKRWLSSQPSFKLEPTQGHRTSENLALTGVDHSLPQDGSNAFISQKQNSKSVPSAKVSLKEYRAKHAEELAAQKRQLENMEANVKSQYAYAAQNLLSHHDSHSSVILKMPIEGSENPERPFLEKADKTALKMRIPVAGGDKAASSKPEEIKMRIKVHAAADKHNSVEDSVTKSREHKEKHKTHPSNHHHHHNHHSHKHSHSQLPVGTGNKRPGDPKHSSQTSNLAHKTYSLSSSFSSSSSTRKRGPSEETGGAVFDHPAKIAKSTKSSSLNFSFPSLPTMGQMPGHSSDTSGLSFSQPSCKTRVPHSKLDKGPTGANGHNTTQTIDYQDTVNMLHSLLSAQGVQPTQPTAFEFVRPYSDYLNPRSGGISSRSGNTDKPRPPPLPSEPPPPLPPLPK
Sequence of Met(h) (P08581 25-1390): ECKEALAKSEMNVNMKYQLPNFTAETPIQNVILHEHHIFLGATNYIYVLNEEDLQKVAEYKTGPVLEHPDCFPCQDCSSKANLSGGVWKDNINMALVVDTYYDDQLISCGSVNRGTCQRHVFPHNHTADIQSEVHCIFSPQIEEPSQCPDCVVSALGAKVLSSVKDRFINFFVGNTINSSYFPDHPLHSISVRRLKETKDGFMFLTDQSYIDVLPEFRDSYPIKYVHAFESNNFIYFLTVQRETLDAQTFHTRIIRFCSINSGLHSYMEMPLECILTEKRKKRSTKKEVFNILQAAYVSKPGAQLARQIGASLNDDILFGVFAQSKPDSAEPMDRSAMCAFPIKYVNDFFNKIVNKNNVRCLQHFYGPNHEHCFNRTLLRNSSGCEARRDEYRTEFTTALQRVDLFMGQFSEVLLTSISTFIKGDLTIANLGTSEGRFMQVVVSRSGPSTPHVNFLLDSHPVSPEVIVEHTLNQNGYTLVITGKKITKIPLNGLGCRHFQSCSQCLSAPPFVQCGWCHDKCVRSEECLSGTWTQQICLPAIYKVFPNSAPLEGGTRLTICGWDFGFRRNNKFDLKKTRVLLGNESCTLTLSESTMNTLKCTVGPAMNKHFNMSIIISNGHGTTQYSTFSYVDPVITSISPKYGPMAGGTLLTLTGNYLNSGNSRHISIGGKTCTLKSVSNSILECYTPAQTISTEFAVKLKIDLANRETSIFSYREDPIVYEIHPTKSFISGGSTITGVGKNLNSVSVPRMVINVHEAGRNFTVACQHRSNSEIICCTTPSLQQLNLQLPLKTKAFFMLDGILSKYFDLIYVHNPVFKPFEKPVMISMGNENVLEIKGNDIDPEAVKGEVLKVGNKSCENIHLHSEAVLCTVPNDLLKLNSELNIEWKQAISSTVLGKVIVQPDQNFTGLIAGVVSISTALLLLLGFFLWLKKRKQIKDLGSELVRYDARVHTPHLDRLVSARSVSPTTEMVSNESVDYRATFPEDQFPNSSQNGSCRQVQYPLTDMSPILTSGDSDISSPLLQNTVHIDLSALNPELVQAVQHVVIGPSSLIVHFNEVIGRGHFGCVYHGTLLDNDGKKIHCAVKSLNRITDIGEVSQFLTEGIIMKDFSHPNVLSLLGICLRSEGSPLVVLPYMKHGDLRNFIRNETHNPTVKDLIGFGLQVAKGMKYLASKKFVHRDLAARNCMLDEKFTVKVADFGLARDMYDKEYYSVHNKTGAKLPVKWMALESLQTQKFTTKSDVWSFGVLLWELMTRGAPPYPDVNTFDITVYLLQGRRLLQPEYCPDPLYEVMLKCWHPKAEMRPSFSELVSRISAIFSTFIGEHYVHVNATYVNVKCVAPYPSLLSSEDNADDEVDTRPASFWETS
Sequence of CaMKI(h) (Q14012 whole entry): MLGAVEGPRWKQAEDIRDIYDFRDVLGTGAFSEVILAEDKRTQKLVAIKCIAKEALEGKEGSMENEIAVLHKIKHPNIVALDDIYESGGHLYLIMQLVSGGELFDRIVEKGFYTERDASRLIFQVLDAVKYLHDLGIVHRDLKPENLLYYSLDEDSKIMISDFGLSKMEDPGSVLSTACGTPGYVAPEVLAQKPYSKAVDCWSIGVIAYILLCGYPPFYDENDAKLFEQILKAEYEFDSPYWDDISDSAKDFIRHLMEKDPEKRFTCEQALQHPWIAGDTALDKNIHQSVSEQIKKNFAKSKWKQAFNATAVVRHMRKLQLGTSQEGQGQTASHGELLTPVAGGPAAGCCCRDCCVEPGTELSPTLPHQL
Sequence of CaMKIδ(h) (Q8IU85 whole entry): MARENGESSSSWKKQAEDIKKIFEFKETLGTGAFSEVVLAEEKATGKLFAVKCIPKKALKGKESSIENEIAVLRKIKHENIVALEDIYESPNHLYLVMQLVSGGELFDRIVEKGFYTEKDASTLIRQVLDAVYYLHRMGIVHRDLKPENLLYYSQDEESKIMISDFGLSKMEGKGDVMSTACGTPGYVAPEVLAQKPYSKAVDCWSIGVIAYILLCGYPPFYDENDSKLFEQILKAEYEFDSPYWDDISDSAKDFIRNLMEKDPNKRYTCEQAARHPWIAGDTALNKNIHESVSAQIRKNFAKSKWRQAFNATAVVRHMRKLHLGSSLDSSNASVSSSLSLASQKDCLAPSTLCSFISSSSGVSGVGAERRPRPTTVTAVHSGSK
Sequence of PAK2(h) (Q13177 whole entry): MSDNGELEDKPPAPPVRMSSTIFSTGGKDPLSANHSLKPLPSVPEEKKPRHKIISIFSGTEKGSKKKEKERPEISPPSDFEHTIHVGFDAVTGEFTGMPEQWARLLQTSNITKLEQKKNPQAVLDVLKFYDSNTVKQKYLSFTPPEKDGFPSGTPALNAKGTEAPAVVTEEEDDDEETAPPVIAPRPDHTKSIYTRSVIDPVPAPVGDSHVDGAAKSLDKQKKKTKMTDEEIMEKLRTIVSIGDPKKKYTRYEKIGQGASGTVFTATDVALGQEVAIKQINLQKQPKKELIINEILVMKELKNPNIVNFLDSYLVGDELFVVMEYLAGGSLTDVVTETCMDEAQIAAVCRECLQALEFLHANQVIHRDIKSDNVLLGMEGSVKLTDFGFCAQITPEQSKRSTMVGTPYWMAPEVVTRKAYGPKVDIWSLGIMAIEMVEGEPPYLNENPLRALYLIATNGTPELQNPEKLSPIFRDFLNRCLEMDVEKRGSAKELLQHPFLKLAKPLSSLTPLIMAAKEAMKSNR

Row | SMILES | inhibition at 1 µM (PDK1(h)) | inhibition at 1 µM (PAK2(h)) | inhibition at 1 µM (MST2(h)) | inhibition at 1 µM (CDK6/cyclinD3(h)) | inhibition at 1 µM (EGFR(h)) | inhibition at 1 µM (Met(h)) | inhibition at 1 µM (CaMKIδ(h)) | inhibition at 1 µM (CDK9/cyclin T1(h)) | inhibition at 1 µM (PRAK(h)) | inhibition at 1 µM (CaMKI(h)) | inhibition at 1 µM (SAPK4(h)) | inhibition at 1 µM (CLK2(h))
1 | Nc1n[nH]c2ccc(-c3ccnc4[nH]c(-c5cccc(OCc6ccccc6)c5)cc34)cc12 [Compound 5r [SU1261]] | 7% | 1% | -1% | 17% | 5% | 14% | 9% | 98% | 91% | -6% | 18% | 80%
2 | Nc1n[nH]c2ccc(-c3ccnc4[nH]c(-c5ccnc(OCc6ccccc6)c5)cc34)cc12 [Compound 6g [SU1349]] | 18% | 0% | 4% | -13% | -8% | -3% | 24% | 99% | 44% | 1% | 10% | 68%
3 | Nc1n[nH]c2ccc(-c3ccnc4[nH]c(-c5ccccc5)cc34)cc12 [Compound 4] | 25% | 18% | 5% | 82% | 13% | 61% | -8% | 98% | 97% | 9% | 87% | 97%
